Where a name gives a salt, the structure may show the parent alone.
Each molecule was assayed against T1, rat GABAA α2β2γ2 Receptors (Rattus norvegicus, UniProt P23576) (assay: PatchXpress 7000A automated parallel patch-clamp: potentiation of GABA EC20 current in HEK293 cells). Settings: percent increase in mean GABA EC20 current response; HEK293 cells stably expressing rat GABAA α2β2γ2; voltage-clamped at −60 mV.
T1 construct: expressed in transfected cells; pIRES Neo2 / Hygro2 / Puro2 vectors
Type: cell-based
Method: Cell Line Generation and Transient Expression. In order to generate stable clonal lines expressing GABAA configurations containing α2β2γ2 subunits, HEK293 cells were transfected with 2 μg of the subunit, using the Invitrogen Lipofectamine PLUS protocol. The following DNA and vector were used for the stable transfection: α2 subunits in pIRES Neo2, β2 subunit in pIRES Hygro2, and a γ2 subunit in pIRES Puro2. Transfectants were selected with G418, Hygromycin B, and Puromycin antibiotics and cloned by limiting dilution. For transient expression, transfections were performed using the Amaxa transfection protocol and 2 μg DNA of the GABAA receptor subunit using Amaxa transfection protocol. Cells were used for experiments 24-72 hrs post transfection.
PatchXpress® 7000A Automated Parallel Patch-Clamp System. HEK293 cells stably expressing recombinant the rat GABAA/α2β2γ2 configuration were harvested by a single DPBS wash followed by 0.025% Trypsin-EDTA treatment for one minute at room temperature. A 6-ml cell suspension (1.7×10^5 cells/ml) was centrifuged at 500 rpm for 60 s. The cell pellet was gently agitated, suspended in 150 μl extracellular saline buffer, and transferred to a 1.5-ml tube.
After manually placing the AVIVA Biosciences SealChip 16™ in the holder of the PatchXpress®, the SealChip16™ was automatically prepared for application of the cells. Intracellular solution containing (in mM) CsCl, 135; EGTA, 11; MgCl2, 1; HEPES, 10; ATP, 5; GTP, 0.3 (pH 7.3 with CsOH, 290-300 mOsmol) was injected into the bottom of each chamber, and extracellular solution containing (in mM) NaCl, 140; KCl, 4; CaCl2, 1.8; MgCl2, 1; glucose, 10; HEPES, 10; ATP-K2, 5 (pH 7.4 with NaOH 305-310 mOsmol) was perfused into the top of the chambers through a 16-nozzle wash station. Throughout this period, the pressure controller maintained a positive pressure (+10 mmHg) from the intracellular side to keep the hole free of debris. Seal formation was achieved by a ramp increase in negative pressure from 0 to −35 mmHg at a rate of −3.5 mmHg/s every 10 s until a giga ohm seal was obtained and verified for 30 s.
Compounds were prepared from fresh DMSO stock and were transferred to a 96-well disposable glass insert compound plate for placement in the PatchXpress®. A full 10 point concentration-response curve for GABA was obtained for the GABA receptor cell line, from which an EC20 was estimated. Test compounds were assayed for their ability to potentiate the current response by an EC20 concentration of GABA. Each experiment began by two consecutive applications of GABA EC20 alone. Following formation of a giga-ohm seal, patch chambers were perfused with extracellular saline for 60 s to remove excess cells from the well. Cells were then voltage-clamped to −60 mV for the duration of the experiment. After 60 s, 30 μl (10 μl/s over 3 s) of GABA EC20 concentration, which elicited a GABA receptor-mediated inward Cl^− current generally in the order of 200-300 pA in peak amplitude, was added to each chamber. The GABA EC20 concentration was then washed out of the recording chamber after 5 s and washing with extracellular saline was continued for 60 s. After another 60 s, a second GABA EC20 concentration was applied under the same paradigm. […] Following the second GABA EC20 application, the lowest concentration of test compound in the presence of the GABA EC20 concentration was similarly applied. Ascending concentrations of the test compound were applied successively to an individual well in the presence of the GABA EC20 concentration.
Only cells meeting strict predetermined patch-clamp QC parameters, including seal resistance, membrane resistance, and holding current were included in data analysis. GABA current responses in the presence of test compound were measured and expressed as the mean of the initial control GABA EC20 current responses. The peak current amplitude was measured using DataXpress/pCLAMP9 (Axon Instruments). Linear leak subtraction was performed off-line. […]

T1 sequence (P23576 29-451): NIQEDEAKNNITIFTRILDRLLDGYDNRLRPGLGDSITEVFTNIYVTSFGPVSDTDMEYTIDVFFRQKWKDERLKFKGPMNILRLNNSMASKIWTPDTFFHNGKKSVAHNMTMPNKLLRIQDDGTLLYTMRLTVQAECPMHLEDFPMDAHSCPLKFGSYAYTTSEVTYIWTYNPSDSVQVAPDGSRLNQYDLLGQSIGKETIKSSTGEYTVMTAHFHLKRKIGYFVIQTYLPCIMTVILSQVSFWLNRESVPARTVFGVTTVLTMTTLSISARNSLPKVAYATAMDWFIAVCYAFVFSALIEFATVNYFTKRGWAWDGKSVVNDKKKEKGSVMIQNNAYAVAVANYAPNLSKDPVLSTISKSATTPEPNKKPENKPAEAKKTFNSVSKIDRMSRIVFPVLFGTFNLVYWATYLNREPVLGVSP
T1 sequence (P63138 25-474 partner limits assumed): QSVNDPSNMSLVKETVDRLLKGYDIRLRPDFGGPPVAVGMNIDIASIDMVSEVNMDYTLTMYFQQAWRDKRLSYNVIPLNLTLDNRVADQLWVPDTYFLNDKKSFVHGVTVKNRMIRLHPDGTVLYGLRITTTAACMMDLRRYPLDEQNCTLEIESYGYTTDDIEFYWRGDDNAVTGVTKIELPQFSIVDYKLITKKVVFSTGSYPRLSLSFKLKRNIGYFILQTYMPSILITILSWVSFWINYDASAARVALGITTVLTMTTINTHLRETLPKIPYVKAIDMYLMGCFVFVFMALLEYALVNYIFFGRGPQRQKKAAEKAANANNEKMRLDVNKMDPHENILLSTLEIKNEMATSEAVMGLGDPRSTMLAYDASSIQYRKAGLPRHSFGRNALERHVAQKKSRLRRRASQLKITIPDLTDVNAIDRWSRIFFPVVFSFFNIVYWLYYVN
T1 sequence (P18508 39-466 partner): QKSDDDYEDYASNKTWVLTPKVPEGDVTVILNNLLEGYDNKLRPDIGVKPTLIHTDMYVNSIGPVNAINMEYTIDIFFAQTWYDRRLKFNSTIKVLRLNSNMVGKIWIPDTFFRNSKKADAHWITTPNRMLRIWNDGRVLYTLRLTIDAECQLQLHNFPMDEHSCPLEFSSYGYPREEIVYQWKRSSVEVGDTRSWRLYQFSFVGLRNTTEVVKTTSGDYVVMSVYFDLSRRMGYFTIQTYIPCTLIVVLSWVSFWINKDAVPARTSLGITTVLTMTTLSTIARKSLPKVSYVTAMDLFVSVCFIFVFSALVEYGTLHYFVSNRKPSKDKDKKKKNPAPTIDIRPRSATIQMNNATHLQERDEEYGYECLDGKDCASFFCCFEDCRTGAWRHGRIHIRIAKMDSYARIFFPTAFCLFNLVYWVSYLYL

Row | Compound | GABAA α2 EP EMAX (%)
1 | C#Cc1ccc2c(c1)C(c1ccccc1)=NCc1c(C(=O)NCCOCCNC(=O)c3ncn4c3CN=C(c3ccccc3)c3cc(C#C)ccc3-4)ncn1-2 [Example 23, N,N′-(2,2′-Oxybis(ethane-2,1-diyl))bis(8-ethynyl-6-phenyl-4H-benzo[f]imidazo[1,5-a][1,4]diazepine-3-carboxamide)] | * (200% < Emax < 300 *)
2 | C#Cc1ccc2c(c1)C(c1ccccc1)=NCc1c(C(=O)NCCN(C)CCNC(=O)c3ncn4c3CN=C(c3ccccc3)c3cc(C#C)ccc3-4)ncn1-2 [Example 24, N,N′-(2,2′-(Methylazanediyl)bis(ethane-2,1-diyl))bis(8-ethynyl-6-phenyl-4H-benzo[f]imidazo[1,5-a][1,4]diazepine-3-carboxamide)] | ** (300% < Emax < 400 **)
3 | C#Cc1ccc2c(c1)C(c1ccccc1)=NCc1c(C(=O)NCCSCCNC(=O)c3ncn4c3CN=C(c3ccccc3)c3cc(C#C)ccc3-4)ncn1-2 [Example 25, N,N′-(2,2′-Thiobis(ethane-2,1-diyl))bis(8-ethynyl-6-phenyl-4H-benzo[f]imidazo[1,5-a][1,4]diazepine-3-carboxamide)] | * (200% < Emax < 300 *)

Same assay, conditions: percent increase in mean GABA EC20 current response; HEK293 cells stably expressing rat GABAA α2β2γ2; voltage-clamped at −60 mV; read-out: GABAA α2 EP EMAX (%)

Row | Compound | Emax [%]
4 | C#Cc1ccc2c(c1)C(c1ccccc1)=NCc1c(C(=O)N(CC)CC)ncn1-2 [Example 1, N,N-Diethyl-8-ethynyl-6-phenyl-4H-benzo[f]imidazo[1,5-a][1,4]diazepine-3-carboxamide] | 400 to 500
5 | C#Cc1ccc2c(c1)C(c1ccccc1)=NCc1c(C(=O)NCC)ncn1-2 [Example 2, N-Ethyl-8-ethynyl-6-phenyl-4H-benzo[f]imidazo[1,5-a][1,4]diazepine-3-carboxamide dihydrochloride] | 300 to 400
6 | C#Cc1ccc2c(c1)C(c1ccccc1)=NCc1c(C(N)=O)ncn1-2 [Example 3, 8-Ethynyl-6-phenyl-4H-benzo[f]imidazo[1,5-a][1,4]diazepine-3-carboxamide] | 300 to 400
7 | C#Cc1ccc2c(c1)C(c1ccccc1)=NCc1c(C(=O)NCCOC)ncn1-2 [Example 4, 8-Ethynyl-N-(2-methoxyethyl)-6-phenyl-4H-benzo[f]imidazo[1,5-a][1,4]diazepine-3-carboxamide Dihydrochloride] | > 500
8 | C#Cc1ccc2c(c1)C(c1ccccc1)=NCc1c(C(=O)NCCO)ncn1-2 [Example 5, 8-Ethynyl-N-(2-hydroxyethyl)-6-phenyl-4H-benzo[f]imidazo[1,5-a][1,4]diazepine-3-carboxamide] | 400 to 500
9 | C#Cc1ccc2c(c1)C(c1ccccc1)=NCc1c(C(=O)NCCN(C)C)ncn1-2 [Example 6, N-(2-(Dimethylamino)ethyl)-8-ethynyl-6-phenyl-4H-benzo[f]imidazo[1,5-a][1,4]diazepine-3-carboxamide] | 300 to 400
10 | C#Cc1ccc2c(c1)C(c1ccccc1)=NCc1c(C(=O)NCC(=O)OCC)ncn1-2 [Example 7, Ethyl 2-(8-ethynyl-6-phenyl-4H-benzo[f]imidazo[1,5-a][1,4]diazepine-3-carboxamido)acetate] | 300 to 400
11 | C#Cc1ccc2c(c1)C(c1ccccc1)=NCc1c(C(=O)N3CCN(C)CC3)ncn1-2 [Example 8, (8-Ethynyl-6-phenyl-4H-benzo[f]imidazo[1,5-a][1,4]diazepin-3-yl)(4-methylpiperazin-1-yl)methanone] | 300 to 400
12 | C#Cc1ccc2c(c1)C(c1ccccc1)=NCc1c(C(=O)N3CCOCC3)ncn1-2 [Example 9] | 400 to 500
13 | C#Cc1ccc2c(c1)C(c1ccccc1)=NCc1c(C(=O)NC3CC3)ncn1-2 [Example 10, N-Cyclopropyl-8-ethynyl-6-phenyl-4H-benzo[f]imidazo[1,5-a][1,4]diazepine-3-carboxamide] | > 500
14 | C#Cc1ccc2c(c1)C(c1ccccc1)=NCc1c(C(=O)NCCOCC)ncn1-2 [Example 12, N-(2-Ethoxyethyl)-8-ethynyl-6-phenyl-4H-benzo[f]imidazo[1,5-a][1,4]diazepine-3-carboxamide dihydrochloride] | 300 to 400
15 | C#Cc1ccc2c(c1)C(c1ccccc1)=NCc1c(C(=O)NC(CC)COC)ncn1-2 (centres unmarked) [Example 13, 8-Ethynyl-N-(1-methoxybutan-2-yl)-6-phenyl-4H-benzo[f]imidazo[1,5-a][1,4]diazepine-3-carboxamide] | 200 to 300
16 | C#Cc1ccc2c(c1)C(c1ccccc1)=NCc1c(C(=O)N[C@@H](COC)C3CC3)ncn1-2 [Example 14, N—((R)-1-Cyclopropyl-2-methoxyethyl)-8-ethynyl-6-phenyl-4H-benzo[f]imidazo[1,5-a][1,4]diazepine-3-carboxamide] | 200 to 300
17 | C#Cc1ccc2c(c1)C(c1ccccc1)=NCc1c(C(=O)NC(COC)COC)ncn1-2 [Example 15, N-(1,3-Dimethoxypropan-2-yl)-8-ethynyl-6-phenyl-4H-benzo[f]imidazo[1,5-a][1,4]diazepine-3-carboxamide] | 200 to 300
18 | C#Cc1ccc2c(c1)C(c1ccccc1)=NCc1c(C(=O)N(CCOC)CCOC)ncn1-2 [Example 16, 8-Ethynyl-N,N-bis(2-methoxyethyl)-6-phenyl-4H-benzo[f]imidazo[1,5-a][1,4]diazepine-3-carboxamide] | 200 to 300
19 | C#Cc1ccc2c(c1)C(c1ccccc1)=NCc1c(C(=O)NC(C)COC)ncn1-2 (centres unmarked) [Example 17, 8-Ethynyl-N-(1-methoxypropan-2-yl)-6-phenyl-4H-benzo[f]imidazo[1,5-a][1,4]diazepine-3-carboxamide] | 200 to 300
20 | C#Cc1ccc2c(c1)C(c1ccccc1)=NCc1c(C(=O)NCCCOC)ncn1-2 [Example 18, 8-Ethynyl-N-(3-methoxypropyl)-6-phenyl-4H-benzo[f]imidazo[1,5-a][1,4]diazepine-3-carboxamide] | 400 to 500
21 | C#Cc1ccc2c(c1)C(c1ccccc1)=NCc1c(C(=O)NCCOCCC)ncn1-2 [Example 19, 8-Ethynyl-6-phenyl-N-(2-propoxyethyl)-4H-benzo[f]imidazo[1,5-a][1,4]diazepine-3-carboxamide] | 400 to 500
22 | C#Cc1ccc2c(c1)C(c1ccccc1)=NCc1c(C(=O)NCCOC(C)C)ncn1-2 [Example 20, 8-Ethynyl-N-(2-isopropoxyethyl)-6-phenyl-4H-benzo[f]imidazo[1,5-a][1,4]diazepine-3-carboxamide] | 400 to 500
23 | C#Cc1ccc2c(c1)C(c1ccccc1)=NCc1c(C(=O)N3CCN(c4ncccn4)CC3)ncn1-2 [Example 21, (8-Ethynyl-6-phenyl-4H-benzo[f]imidazo[1,5-a][1,4]diazepin-3-yl)(4-(pyrimidin-2-yl)piperazin-1-yl)methanone] | 200 to 300
24 | C#Cc1ccc2c(c1)C(c1ccccc1)=NCc1c(C(=O)NCC(O)CC)ncn1-2 (centres unmarked) [Example 26, 8-Ethynyl-N-(2-hydroxybutyl)-6-phenyl-4H-benzo[f]imidazo[1,5-a][1,4]diazepine-3-carboxamide] | 200 to 300
25 | C#Cc1ccc2c(c1)C(c1ccccc1)=NCc1c(C(=O)NC[C@@H](C)O)ncn1-2 [Example 27, 8-Ethynyl-N—((R)-2-hydroxypropyl)-6-phenyl-4H-benzo[f]imidazo[1,5-a][1,4]diazepine-3-carboxamide] | 200 to 300
26 | C#Cc1ccc2c(c1)C(c1ccccc1)=NCc1c(C(=O)NC[C@H](C)O)ncn1-2 [Example 28, 8-Ethynyl-N—((S)-2-hydroxypropyl)-6-phenyl-4H-benzo[f]imidazo[1,5-a][1,4]diazepine-3-carboxamide] | 300 to 400

— patent US8119629B2, “Carboxamide GABAA α2 modulators” (Bristol-Meyers Squibb Company, priority 2007, dated 2012)
